Laboratory results taken from ChEMBL document CHEMBL1201862, “PubChem BioAssay data set” (2004).
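Values below derive from 48-hour exposures of cells grown in 96-well plates, with endpoints linearly interpolated between the two concentrations bracketing the appropriate inhibition level. GI50 = concentration required for 50% inhibition of growth.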 Calls of active or inactive are those of the source. No stated cut-off is given here; in the data, active = GI50 up to about 1.1 µM and inactive = higher.

Experiments:
Test in all cases: NCI-60 cell line screen, 48 h
DLD-1 = tested on: DLD-1
XF498 = tested on: XF498
M19-MEL = tested on: M19-MEL
SNB-78 = tested on: SNB-78
LXFL 529 = tested on: LXFL 529
DMS-114 = tested on: DMS-114
DMS-273 = tested on: DMS-273
HOP-18 = tested on: HOP-18
RXF 631 = tested on: RXF 631

Measured: GI50

Cc1cc2c(c(C(=O)O)c1C)-c1cccc(Cl)c1C2=O
inactive: DLD-1 > 100 µM | XF498 > 100 µM | M19-MEL > 100 µM | SNB-78 > 100 µM | LXFL 529 > 100 µM | DMS-114 > 100 µM | DMS-273 > 100 µM

COc1ccc(C(C#N)NNC(=O)Cc2ccccc2)cc1OC (centres undefined)
inactive: DLD-1 > 100 µM | M19-MEL > 100 µM | SNB-78 > 100 µM | LXFL 529 > 100 µM | HOP-18 > 100 µM | DMS-114 > 100 µM | DMS-273 > 100 µM

Cc1ccc(S(=O)(=O)SCc2ccccc2)cc1
inactive: DLD-1 5.31 µM | XF498 35.5 µM | M19-MEL 33.7 µM | SNB-78 18.5 µM | LXFL 529 14.3 µM | HOP-18 > 80.4 µM | DMS-114 22.2 µM | DMS-273 28.1 µM

COc1ccccc1NC(=O)CC(=O)NNCC(=O)Nc1nnc(-c2ccccc2)o1
inactive: DLD-1 > 100 µM | XF498 > 100 µM | M19-MEL > 100 µM | SNB-78 > 100 µM | LXFL 529 > 100 µM | RXF 631 > 100 µM | DMS-114 > 100 µM | DMS-273 > 100 µM

CCOc1ccc(/N=C/c2cccc3cccnc23)cc1
inactive: DLD-1 51.4 µM | XF498 > 100 µM | M19-MEL > 100 µM | SNB-78 > 100 µM | LXFL 529 13.2 µM | HOP-18 > 100 µM | RXF 631 > 100 µM | DMS-114 88.7 µM | DMS-273 81.3 µM

COc1ccc(NC(=O)NS(=O)(=O)c2ccc(C)cc2)nn1
inactive: DLD-1 > 100 µM | XF498 > 100 µM | M19-MEL > 100 µM | SNB-78 > 100 µM | LXFL 529 > 100 µM | HOP-18 > 100 µM | RXF 631 > 100 µM | DMS-114 > 100 µM | DMS-273 > 100 µM

Nc1ccc(C(=O)N/C(=C\c2cccc([N+](=O)[O-])c2)c2nc3cc(Cl)ccc3[nH]2)cc1
inactive: DLD-1 > 100 µM | XF498 43.1 µM | M19-MEL > 100 µM | SNB-78 > 100 µM | LXFL 529 31 µM | RXF 631 63 µM | DMS-114 > 100 µM

CCN(CC)c1ccc(/N=C2/C=CC(=C(C#N)C#N)c3ccccc32)c(C)c1
inactive: DLD-1 2.44 µM | XF498 1.44 µM | M19-MEL 1.94 µM | SNB-78 1.63 µM | HOP-18 2.32 µM | DMS-273 1.85 µM

C[C@]12CCC[C@H](OC=O)C1(O)C[C@H](C(=O)O)CC2 (some centres undefined)
inactive: DLD-1 > 100 µM | XF498 > 100 µM | M19-MEL > 100 µM | SNB-78 > 100 µM | LXFL 529 > 100 µM | HOP-18 > 100 µM | RXF 631 > 100 µM | DMS-114 > 100 µM | DMS-273 > 100 µM

CCOc1ccc(NC(=O)CCC(=O)NN)cc1
inactive: DLD-1 > 100 µM | XF498 31.7 µM | SNB-78 > 100 µM | LXFL 529 > 100 µM | HOP-18 > 100 µM | DMS-114 > 100 µM | DMS-273 > 100 µM

c1ccc2c(c1)Sc1ccccc1N2C1CN2CCC1CC2 (centres undefined)
inactive: DLD-1 15.8 µM | XF498 13.9 µM | M19-MEL 16 µM | SNB-78 14.4 µM | LXFL 529 16.9 µM | HOP-18 18.2 µM | DMS-114 17.9 µM | DMS-273 16.4 µM

CCOC(=O)C(=O)Nc1c(C)cccc1C(C)C
inactive: DLD-1 > 100 µM | XF498 > 100 µM | M19-MEL > 100 µM | SNB-78 > 100 µM | LXFL 529 > 100 µM | HOP-18 > 100 µM | RXF 631 > 100 µM | DMS-114 > 100 µM | DMS-273 > 100 µM

Cc1cc(Cl)ccc1NC(=O)CCCC(=O)C1CCC/C1=N\NC(=O)CC#N (centres undefined)
inactive: DLD-1 > 100 µM | XF498 > 100 µM | M19-MEL > 100 µM | SNB-78 > 100 µM | LXFL 529 > 100 µM | HOP-18 17.2 µM | RXF 631 > 100 µM | DMS-114 > 100 µM | DMS-273 > 100 µM

CCCCCC(=O)OCCOCCOCCOCCOCCOCc1ccccc1
inactive: DLD-1 > 100 µM | XF498 > 100 µM | SNB-78 > 100 µM | HOP-18 > 100 µM | DMS-114 > 100 µM | DMS-273 > 100 µM

[Zn+2][N+]12CCN3CCN4CCN(CC1)[PH]432 (centres undefined)
inactive: DLD-1 > 100 µM | M19-MEL > 100 µM | SNB-78 > 100 µM | LXFL 529 > 100 µM | HOP-18 > 100 µM | DMS-114 > 100 µM | DMS-273 > 100 µM

O=C(/C=C1/NC(=O)CS1)Nc1ccccc1
inactive: DLD-1 > 100 µM | XF498 > 100 µM | M19-MEL > 100 µM | SNB-78 > 100 µM | LXFL 529 > 100 µM | HOP-18 > 100 µM | RXF 631 > 100 µM | DMS-114 > 100 µM | DMS-273 > 100 µM

C=CCN(N=O)C(=O)N(CCC)CCCC(NC(C)=O)C(=O)NCc1ccccc1 (centres undefined)
inactive: XF498 > 100 µM | M19-MEL > 100 µM | LXFL 529 > 100 µM | HOP-18 > 100 µM | RXF 631 > 100 µM | DMS-114 > 100 µM | DMS-273 > 100 µM

COC(=O)c1ccc(C(=O)OC)c2nc3cc(C)ccc3nc12
inactive: DLD-1 > 100 µM | XF498 > 100 µM | SNB-78 > 100 µM | LXFL 529 > 100 µM | HOP-18 > 100 µM | RXF 631 > 100 µM | DMS-114 > 100 µM | DMS-273 > 100 µM

CN(C)CCNC(=O)c1ccccc1Nc1c(Cl)cccc1Cl
inactive: DLD-1 18.2 µM | XF498 9.66 µM | M19-MEL 11.1 µM | SNB-78 16.4 µM | LXFL 529 17.7 µM | DMS-273 16.9 µM

CC1(C)OC(COCCOCCCCCO)C(COCCOCCCCCO)O1 (centres undefined)
inactive: DLD-1 > 100 µM | M19-MEL > 100 µM | SNB-78 > 100 µM | LXFL 529 > 100 µM | HOP-18 > 100 µM | RXF 631 > 100 µM | DMS-114 > 100 µM | DMS-273 > 100 µM

COC(=O)/C(=N\NC(N)=O)C(C(=O)C=C(C)C)C(=O)C(=O)Nc1ccc(Cl)c(Cl)c1 (centres undefined)
inactive: DLD-1 > 100 µM | XF498 > 100 µM | M19-MEL > 100 µM | SNB-78 > 100 µM | LXFL 529 > 100 µM | HOP-18 > 100 µM | RXF 631 > 100 µM | DMS-114 > 100 µM | DMS-273 > 100 µM

COC(=O)/C(=N/NC(=O)C[N+](C)(C)C)C(C(=O)OC)C(=O)C(=O)Nc1ccc(F)cc1 (centres undefined)
inactive: DLD-1 > 100 µM | M19-MEL > 100 µM | SNB-78 > 100 µM | LXFL 529 > 100 µM | HOP-18 > 100 µM | RXF 631 > 100 µM | DMS-114 > 100 µM | DMS-273 > 100 µM

CC(C)N1C(C)[C@@H](c2ccccc2)O[P@]1(=O)CC1=CCCCC1 (some centres undefined)
inactive: DLD-1 > 100 µM | XF498 > 100 µM | M19-MEL > 100 µM | LXFL 529 92.5 µM | HOP-18 > 100 µM | DMS-114 49.5 µM

CC1CC(c2ccccc2)=Nc2ccccc2S1(=O)=O (centres undefined)
inactive: DLD-1 15.1 µM | XF498 18.6 µM | M19-MEL 14.9 µM | SNB-78 15 µM | LXFL 529 15.3 µM | HOP-18 13.9 µM | RXF 631 > 10 µM | DMS-114 20.9 µM | DMS-273 20.1 µM

CC(=O)NC(ON1C(=O)COc2ccccc21)C(Cl)(Cl)Cl (centres undefined)
inactive: DLD-1 > 100 µM | XF498 > 100 µM | SNB-78 > 100 µM | LXFL 529 > 100 µM | DMS-273 > 100 µM

O=C(O)CNCc1c2ccccc2nc2ccccc12
inactive: DLD-1 33.3 µM | XF498 28.8 µM | M19-MEL 54.7 µM | SNB-78 54 µM | LXFL 529 26.5 µM | HOP-18 > 100 µM | DMS-114 20.7 µM | DMS-273 40.2 µM
